Reference: patent publication US10314307B2, “(S)-abscisic acid derivatives for improving plant stress tolerance” (Valent BioSciences Corporation, priority 2015, dated 2019)

Assays:
Type in all cases: in vivo
[1] = tested on: corn plants, 111 day, central corn belt variety; assay: Corn plant chilling (growth rate); details: for Growth Rate, Greenhouse 7-9 d post spray / Growth Rate, Greenhouse 0-2 d post spray / Growth Rate, Growth Chamber 10° C. 2-7 d post spray: Table 3 study; for Growth Rate, Greenhouse 7-9 d post spray: after chilling; for Growth Rate, Growth Chamber 10° C. 2-7 d post spray: during chilling at 10° C.
Procedure: Corn seeds of a 111 day, central corn belt variety were planted in 2-quart pots filled with medium. After the corn grew for 10 days in the greenhouse at 24±3° C. (V2 to V3 growth stage), the plants received a foliar spray application of aqueous solutions of the test compounds containing 0.25% non-ionic surfactant with a volume equivalent to 30 gallons/acre. After spraying, plants were moved back to the greenhouse for 2 days, then moved to a growth chamber kept at 10° C. with a 16:8 light:dark cycle (cold treatment). After 5 days in the cold, plants were returned to the greenhouse for 2 days before being harvested destructively. Results of the studies comparing the growth rate of plants treated with S-ABA with 3′-methyl-(S)-ABA during the experiment are shown in Table 3. In additional studies, the effect of S-ABA and 3′-propargyl-(S)-ABA on corn growth rate in chilling studies was compared.

[2] = tested on: corn plants, commercial 111 day, central corn belt variety; assay: Corn stomatal conductance; details: for Average Stomatal Conductance (% of Control), 6 DAS: 6 days after spraying; for Average Stomatal Conductance (% of Control), 16 DAS: 16 days after spraying
Procedure: (§1) In this greenhouse experiment, foliar spray treatments containing 3′-methyl-(S)-abscisic acid, 3′-propargyl-(S)-abscisic acid or (S)-abscisic acid were applied to corn plants to evaluate their effect on gas exchange, as measured through stomatal conductance. Corn plants of a commercial, 111 day, central corn belt variety were grown in the greenhouse under optimal conditions for five weeks and were size-matched into ten groups of five plants. Using an aerosol sprayer, each group was sprayed to drip (25 milliliters per plant) with solutions containing a non-ionic surfactant (0.125%, v/v) and water (control), 2.5 mg, 7.5 mg or 25 mg/plant 3′-methyl-(S)-abscisic acid, or 2.5 mg, 7.5 mg or 25 mg/plant 3′-propargyl-(S)-abscisic acid, or 7.5 mg, 25 mg or 75 mg/plant (5)-ABA, respectively. After spraying, plants were returned to the greenhouse for the duration of the experiment. Stomatal conductance was measured using an AP4 porometer (Delta T Devices, Cambridge, UK) and the conductance for each plant was recorded at approximately the same time of day (˜10 AM) prior to treatment application as well as 1, 2, 5, 6, 9 and 16 days post-spraying.

[3] = tested on: corn plants, commercial 111 day, central corn belt variety; assay: Corn plant leaf rolling assay and shoot fresh weight under drought; details: for Shoot Fresh Weight, 15 DAS: 12 days drought then 3 days watering; for Average # of Rolled Leaves/Plant, 5 DAS / Average # of Rolled Leaves/Plant, 6 DAS / Average # of Rolled Leaves/Plant, 8 DAS: water withheld; for Average # of Rolled Leaves/Plant, 5 DAS: 5 days after spraying; for Average # of Rolled Leaves/Plant, 6 DAS: 6 days after spraying; for Average # of Rolled Leaves/Plant, 8 DAS: 8 days after spraying
Procedure: as §1, with “post-spraying. This study was conducted as described above with the following the exceptions. After spraying, plants were put back in the greenhouse and water was withheld for twelve days, simulating drought stress. The plants were then watered to saturation for three consecutive days before the plant shoots were cut at the soil surface and subsequently weighed in grams (fresh weight). Leaf-rolling data and fresh weight data were recorded for each plant following treatment application at the times specified below in Table 6.” for “post-spraying.”

[4] = tested on: corn seed of a common inbred parental line; assay: Corn plant emergence after seed treatment; details: for Delay in Median Emergence Time Compared to Control / Median Time to Emergence: 20.5° C.
Procedure: Corn seed of a common inbred parental line were treated using standard seed treatment equipment with water (control), 40 μg, 80 μg or 160 μg/seed S-ABA, 10 μg, 20 μg, 40 μg or 80 μg/seed 3′-methyl-(S)-abscisic acid, or 10 μg, 20 μg, 40 μg or 80 μg/seed 3′-propargyl-(S)-abscisic acid. Post treatment, the seeds were planted in 12×3×2″ plastic boxes containing one kilogram of sieved, pre-moistened field soil. Fifty seeds were planted in each box at three centimeter depth and two replicate boxes per treatment at 20.5° C. under constant illumination. Two replications of the experiment were incubated under constant light in a 20.5° C. growth chamber. Emergence counts were recorded almost daily until seedling emergence had ceased (42 days). Daily counts were converted to proportions of the final emergence to estimate the median emergence time for each box.

[5] = foliar spray 30 mg/l (3.4 g/acre)
[6] = foliar spray 100 mg/l (11.4 g/acre)
[7] = foliar spray 300 mg/l (34.1 g/acre)
[8] = foliar spray 1000 mg/l (113.7 g/acre)
[9] = foliar spray 100 ppm or 2.5 mg/plant
[10] = foliar spray 300 ppm or 7.5 mg/plant
[11] = foliar spray 1000 ppm or 25 mg/plant

Structure (SMILES): CC1=C(C)[C@](O)(/C=C/C(C)=C\C(=O)O)C(C)(C)CC1=O [3′-methyl-(S)-ABA, (2Z,4E)-5-((S)-1-hydroxy-2,3,6,6-tetramethyl-4-oxocyclohex-2-en-1-yl)-3-methylpenta-2,4-dienoic acid]
- Maintenance of growth under cold (10° C.) conditions ([1]; S-ABA even at 1000 mg/l (113.7 g/acre)): maintained growth
- Growth Rate, Greenhouse 7-9 d post spray [1, 5]: 2.650 cm/day
- Growth Rate, Greenhouse 0-2 d post spray ([1]; foliar spray 30 mg/l (3.4 g/acre), before chilling): 3.725 cm/day
- Growth Rate, Growth Chamber 10° C. 2-7 d post spray [1, 5]: 1.092 cm/day
- Growth Rate, Greenhouse 7-9 d post spray [1, 6]: 2.795 cm/day
- Growth Rate, Greenhouse 0-2 d post spray ([1]; foliar spray 100 mg/l (11.4 g/acre), before chilling): 4.290 cm/day
- Growth Rate, Growth Chamber 10° C. 2-7 d post spray [1, 6]: 1.084 cm/day
- Growth Rate, Greenhouse 7-9 d post spray [1, 7]: 3.565 cm/day
- Growth Rate, Greenhouse 0-2 d post spray ([1]; foliar spray 300 mg/l (34.1 g/acre), before chilling): 3.645 cm/day
- Growth Rate, Growth Chamber 10° C. 2-7 d post spray [1, 7]: 0.990 cm/day
- Growth Rate, Greenhouse 7-9 d post spray [1, 8]: 2.945 cm/day
- Growth Rate, Greenhouse 0-2 d post spray ([1]; foliar spray 1000 mg/l (113.7 g/acre), before chilling): 3.615 cm/day
- Growth Rate, Growth Chamber 10° C. 2-7 d post spray [1, 8]: 1.160 cm/day
- Plant growth initially following spraying ([1]; before chilling): initially suppressed
- Leaf area ([1]; in one of two studies, not repeatable across studies, 3′-methyl-(S)-abscisic acid at 30, 100 and 300 mg/liter): increased
- Average Stomatal Conductance (% of Control), 6 DAS [2, 9]: 93.3 % of Control
- Average Stomatal Conductance (% of Control), 16 DAS [2, 9]: 98.3 % of Control
- Average Stomatal Conductance (% of Control), 6 DAS [2, 10]: 70.6 % of Control
- Average Stomatal Conductance (% of Control), 16 DAS [2, 10]: 79.4 % of Control
- Average Stomatal Conductance (% of Control), 6 DAS [2, 11]: 69.6 % of Control
- Average Stomatal Conductance (% of Control), 16 DAS [2, 11]: 74.5 % of Control
- Relative potency resulting in a 25% reduction in transpiration, times that seen with S-ABA ([2]; regression of the data in Table 5): 1.97 times
- Shoot Fresh Weight, 15 DAS ([3]; 100 ppm or 2.5 mg/plant): 256.0 grams
- Average # of Rolled Leaves/Plant, 5 DAS ([3]; 100 ppm or 2.5 mg/plant): 1.6
- Average # of Rolled Leaves/Plant, 6 DAS ([3]; 100 ppm or 2.5 mg/plant): 4.6
- Average # of Rolled Leaves/Plant, 8 DAS ([3]; 100 ppm or 2.5 mg/plant): 9.0
- Shoot Fresh Weight, 15 DAS ([3]; 300 ppm or 7.5 mg/plant): 276.6 grams
- Average # of Rolled Leaves/Plant, 5 DAS ([3]; 300 ppm or 7.5 mg/plant): 2.0
- Average # of Rolled Leaves/Plant, 6 DAS ([3]; 300 ppm or 7.5 mg/plant): 3.6
- Average # of Rolled Leaves/Plant, 8 DAS ([3]; 300 ppm or 7.5 mg/plant): 8.4
- Shoot Fresh Weight, 15 DAS ([3]; 1000 ppm or 25 mg/plant): 373.4 grams
- Average # of Rolled Leaves/Plant, 6 DAS ([3]; 1000 ppm or 25 mg/plant): 2.2
- Average # of Rolled Leaves/Plant, 8 DAS ([3]; 1000 ppm or 25 mg/plant): 7.2
- Additional delay in emergence in comparison with S-ABA ([4]; 80 μg/seed rate): 5.6 calendar days
- Relative potency of S-ABA, dose required to delay the median emergence time by two days ([4]; regression): 2.2 times
- Delay in Median Emergence Time Compared to Control ([4]; seed treatment 10 μg/seed): 4.9 days
- Median Time to Emergence ([4]; seed treatment 10 μg/seed): 9.7 days
- Delay in Median Emergence Time Compared to Control ([4]; seed treatment 20 μg/seed): 7.9 days
- Median Time to Emergence ([4]; seed treatment 20 μg/seed): 12.7 days
- Delay in Median Emergence Time Compared to Control ([4]; seed treatment 40 μg/seed): 11.1 days
- Median Time to Emergence ([4]; seed treatment 40 μg/seed): 16.0 days
- Delay in Median Emergence Time Compared to Control ([4]; seed treatment 80 μg/seed): 13.8 days
- Median Time to Emergence ([4]; seed treatment 80 μg/seed): 18.6 days
